Source: patent publication US10274456B2, “Method and system for sensing” (Ramot at Tel-Aviv University Ltd., priority 2013, dated 2019)

Key:
Format in all cases: cell-based, Human
Jurkat cells [1] = assay: Extracellular ROS level of drug-treated Jurkat cells measured with the nanowire biosensor; conditions: t=6 hours, normalized by the number of live cells
Method: For measurements of cellular metabolites/activity, cells were cultured in the chip, namely, in the culture compartment thereof (see, for example, FIG. 1A), while placing the chip in an incubator during measurements. A sample was introduced to the sensing compartment at 20 μl min^-1 by using a syringe pump. Human T lymphocytes, Jurkat (TIB-152, ATCC), were cultured and incubated at 37° C. under a humidified 5% CO2 atmosphere. The culture medium used was RPMI 1640 medium (52400, GIBCO) with 10% fetal bovine serum (FBS; 04-001-1A, Biological Industry) and 1% penicillin/streptomycin (15140, GIBCO). During experiments, cells were re-suspended in phenol red-free medium (11835-063, GIBCO) in the presence or absence of a drug, either methotrexate hydrate (MTX; […], SIGMA) or 2-deoxy-D-glucose (2DG; […], SIGMA), at a density of 1×10^6 cells/ml. Cellular samples were dispensed into the wells of the sensing chip (see FIGS. 1A and 1B) in an incubator. 24-hour monitoring of metabolic activity of drug-treated Jurkat cells by measuring extracellular ROS levels using the nanowire biosensor, was performed and the obtained data is presented in FIGS. 6A-G. Measured ROS levels were normalized by the number of live cells.

Jurkat cells [2] = assay: Cell proliferation rate / viability of drug-treated Jurkat cells (trypan blue count); conditions: for cell viability: 24-hour viability observation
Method: During experiments, cells were re-suspended in phenol red-free medium (11835-063, GIBCO) in the presence or absence of a drug, either methotrexate hydrate (MTX; […], SIGMA) or 2-deoxy-D-glucose (2DG; […], SIGMA), at a density of 1×10^6 cells/ml. Cell viability was estimated by using a hemocytometer to count trypan blue-stained cells. Relative cell count, presented in FIGS. 6B and 6E-6F, is a ratio of the cell count at t=24 hours to the initial cell count.

Jurkat cells [3] = assay: pH sensing of drug-treated Jurkat cells (reductant-added medium); conditions: compared with the control
Excerpt: A conversion of the modified FET into a pH sensor was achieved by using a reductant-added solution. After supplementing a culture medium with 0.1% v/v DEHA to reduce the modified FET surface, surface proton density varied by protonation or by deprotonation dominantly changes the measured current.
For pH sensing, 0.1% v/v DEHA was supplemented in the sensing medium to reduce the 9,10-anthraquinone monolayer on the FET surface to obtain 9,10-dihydroxyanthracene (see also FIG. 1d) and H2O2 simultaneously. Therefore, no significant amount of H2O2 in a DEHA-supplemented medium altered a measured signal. As a result, surface proton density, varied by protonation or by deprotonation, dominantly changes an acquired signal.

Jurkat cells [4] = assay: Extracellular lactate level of drug-treated Jurkat cells (lactate oxidase, nanowire biosensor); conditions: after 24 hours
Method: For lactate sensing, 0.1 unit/ml of lactate oxidase (LOX; L0638, SIGMA) was added in phenol red-free medium to convert lactate to pyruvate and H2O2 before lactate reaches the FET array (as depicted in FIG. 1D).
During experiments, cells were re-suspended in phenol red-free medium (11835-063, GIBCO) in the presence or absence of a drug, either methotrexate hydrate (MTX; M8407, SIGMA) or 2-deoxy-D-glucose (2DG; D6134, SIGMA), at a density of 1×10^6 cells/ml.
The correlation between extracellular lactate level of 2DG-treated Jurkat cells and a resultant cell proliferation rate after 24 hours was investigated.

Row | SMILES | ROS level (Jurkat cells [1]) | cell viability (Jurkat cells [2]) | cell proliferation rate (Jurkat cells [2]; after 24 hours, relative cell count) | pH of cultured cells (Jurkat cells [3]) | cellular lactate secretion (Jurkat cells [4])
1 | O=CC[C@@H](O)[C@H](O)[C@H](O)CO [2DG, 2-deoxy-D-glucose] | noticeable decrease | anti-proliferative activity | reduced proliferation rate | more basic than the control | decreased
2 | CN(Cc1cnc2nc(N)nc(N)c2n1)c1ccc(C(=O)N[C@@H](CCC(=O)O)C(=O)O)cc1 [MTX, methotrexate hydrate] | noticeable decrease | anti-proliferative activity | – | – | –
